From ChEMBL document CHEMBL4049412, “Evolution of matrinic ethanol derivatives as anti-HCV agents from matrine skeleton” (Bioorg Med Chem Lett, 2017) come the findings set out here.

The test system of one data set is Hepatitis C virus. Nature of the data set: Antiviral activity against Hepatitis C virus infected in human Huh7.5 cells assessed as reduction in viral RNA level after 72 hrs by RT-PCR method. The format is functional, cell-based, Hepacivirus hominis. To be noted: Huh7.5, 72 h.
Data set [1] is described as follows: Cytotoxicity against human Huh7.5 cells after 72 hrs by MTT assay. The format is cell-based.
The nature of data set [2]: Selectivity index, ratio of CC50 for human Huh7.5 cells to EC50 for Hepatitis C virus infected in human Huh7.5 cells. The format is toxicity, cell-based. Conditions: read-out: Ratio CC50/EC50.
Data set [3] is described as follows: Acute toxicity in Kunming mouse administered as single oral dose measured for 7 days. Conditions: in vivo.
Data set [4] is described as follows: Tmax in Sprague-Dawley rat at 25 mg/kg, po administered as single dose. The class given is ADME, organism-based. To be noted: in vivo.
The nature of data set [5]: Cmax in Sprague-Dawley rat at 25 mg/kg, po administered as single dose. To be noted: in vivo. The class given is ADME, organism-based. Also noted: dose 25 mg/kg, route oral.
Data set [6] in a line: AUC (0 to t) in Sprague-Dawley rat at 25 mg/kg, po administered as single dose. The format is ADME, organism-based. To be noted: in vivo.
Data set [7] can be described thus: AUC (0 to infinity) in Sprague-Dawley rat at 25 mg/kg, po administered as single dose. The class given is ADME, organism-based. Also noted: dose 25 mg/kg, route oral, time infinity. Conditions: in vivo.
Data set [8] in a line: Mean residence time in Sprague-Dawley rat at 25 mg/kg, po administered as single dose. The format is ADME, organism-based. Conditions: in vivo.
A short description of data set [9]: Half life in Sprague-Dawley rat at 25 mg/kg, po administered as single dose. The format is ADME, organism-based. Conditions: in vivo.

Each structure is given as a SMILES string. pEC50: −log10 of the molar value.

Regarding `CCOc1ccc(CN2C[C@@H]3CCCN4CCC[C@@H]([C@H]34)[C@H]2CCO)cc1OC`, the pEC50 with Hepatitis C virus was 5.27. Besides, the CC50 at 72 h in data set [1] is more than 500 µM. Further, the selectivity ratio in data set [2] was more than 93.3.

With `CCOc1ccc(CN2C[C@@H]3CCCN4CCC[C@@H]([C@H]34)[C@H]2CC(=O)OC)cc1OC`, the pEC50 in the data set on Hepatitis C virus was 5.09. This compound also returned a CC50 at 72 h in [1] of more than 500 µM. Also, in data set [2], the selectivity ratio is more than 62.

As for `CCCCN1C[C@@H]2CCCN3CCC[C@@H]([C@H]23)[C@H]1CCO`, in the data set with Hepatitis C virus, the pEC50 is 5.59. Further, in data set [1], the CC50 at 72 h was more than 500 µM. For the same compound, the selectivity ratio in data set [2] is more than 193.

`COc1ccc(CN2C[C@@H]3CCCN4CCC[C@@H]([C@H]34)[C@H]2CCCC(=O)O)cc1`: the negative-log EC50 (pEC50) in the data set with Hepatitis C virus is 4.64. The cytotoxic concentration (CC50) at 72 h in [1] is more than 500 µM. The selectivity ratio in data set [2] is more than 22.

Take `COc1ccc(CN2C[C@@H]3CCCN4CCC[C@@H]([C@H]34)[C@H]2CC(=O)O)cc1`: in the data set on Hepatitis C virus, the pEC50 was 4.56. Also, the CC50 at 72 h in data set [1] was more than 500 µM. Moreover, the selectivity ratio in data set [2] was more than 18.1. The compound further returned an LD50 at 168 h in [3] of more than 500 mg/kg. Also, the time of peak concentration (Tmax) in [4] was 0.42 h. In addition, in [5], the Cmax amounted to 4960 nM. Besides, in [6], the AUC(0-t) worked out at 8.59 µM·h. The AUC(0-inf) in data set [7] is 8.59 µM·h. This compound gave an MRT in data set [8] of 2.16 h. Further, the half-life in data set [9] was 2.54 h.

Take `O=[N+]([O-])c1ccc(CN2C[C@@H]3CCCN4CCC[C@@H]([C@H]34)[C@H]2CCO)cc1`: the pEC50 in the data set on Hepatitis C virus was 5.46. The compound also gave a CC50 at 72 h in [1] of 118 µM. In [2], the selectivity ratio stood at 33.7.

`O=C(O)C[C@@H]1[C@H]2CCCN3CCC[C@@H](CN1Cc1ccc([N+](=O)[O-])cc1)[C@@H]23`: the pEC50 in the data set on Hepatitis C virus was 3.98. Also, the CC50 at 72 h in data set [1] is more than 500 µM. Besides, in data set [2], the selectivity ratio was more than 4.81.

`COc1cccc(CN2C[C@@H]3CCCN4CCC[C@@H]([C@H]34)[C@H]2CCO)c1OC`: in the data set with Hepatitis C virus, the pEC50 is 5.17. This compound also registered a CC50 at 72 h in [1] of 305 µM. Moreover, the selectivity ratio in data set [2] was 45.5.

With `COc1ccc(C(=O)N2C[C@@H]3CCCN4CCC[C@@H]([C@H]34)[C@H]2CCCC(C)(C)O)cc1`, in the data set on Hepatitis C virus, the pEC50 is 4.61. The midpoint of cytotoxicity in [1], the CC50 at 72 h, lay at 362 µM. Further, in data set [2], the selectivity ratio came to 14.7.

Turning to `COC(=O)C[C@@H]1[C@H]2CCCN3CCC[C@@H](CN1Cc1ccccc1C)[C@@H]23`, in the data set on Hepatitis C virus, the pEC50 was 5.15. For the same compound, in data set [1], it took 230 µM to reach half-maximal cytotoxicity (CC50 at 72 h). In data set [2], the selectivity ratio came to 32.2.

On to `COC(=O)C[C@@H]1[C@H]2CCCN3CCC[C@@H](CN1Cc1ccc(C)cc1)[C@@H]23`, for which the pEC50 in the data set with Hepatitis C virus is 5.64. Also, in [1], the CC50 at 72 h came out at 215 µM. Besides, the selectivity ratio in [2] amounted to 93.7.

`Cc1ccc(CN2C[C@@H]3CCCN4CCC[C@@H]([C@H]34)[C@H]2CC(=O)O)cc1`: the pEC50 in the data set on Hepatitis C virus is 4.32. For the same compound, the CC50 at 72 h in data set [1] was more than 500 µM. For the same compound, the selectivity ratio in data set [2] was more than 10.5.

Take `COC(=O)C[C@@H]1[C@H]2CCCN3CCC[C@@H](CN1Cc1ccc(OC)cc1)[C@@H]23`: the pEC50 with Hepatitis C virus was 5.11. This compound returned a CC50 at 72 h in [1] of 392 µM. Moreover, the selectivity ratio in data set [2] was determined as 50.2. In data set [3], this compound yielded an LD50 at 168 h of more than 250 mg/kg. In addition, in data set [4], the Tmax is 0.5 h. This compound also came in with a Cmax in [5] of 360 nM. Besides, the AUC(0-t) in data set [6] amounted to 0.67 µM·h. This compound also returned an area under the curve AUC(0-inf) in data set [7] of 0.69 µM·h. Besides, the MRT in [8] came to 2.25 h. The same compound showed a half-life in [9] of 6.36 h.

On to `COC(=O)C[C@@H]1[C@H]2CCCN3CCC[C@@H](CN1Cc1ccc(F)cc1F)[C@@H]23`, for which, in the data set with Hepatitis C virus, the pEC50 was 5.96. The compound also gave a CC50 at 72 h in [1] of 128 µM. Also, the selectivity ratio in data set [2] stood at 118.

`O=C(O)C[C@@H]1[C@H]2CCCN3CCC[C@@H](CN1Cc1ccncc1)[C@@H]23`: the pEC50 in the data set with Hepatitis C virus was 4.33. For the same compound, in [1], the CC50 at 72 h is more than 500 µM. Further, the selectivity ratio in [2] was more than 10.6.

In the case of `COC(=O)C[C@@H]1[C@H]2CCCN3CCC[C@@H](CN1C(=O)c1ccc(OC)cc1)[C@@H]23`, the pEC50 in the data set on Hepatitis C virus was 5.52. The CC50 at 72 h in data set [1] is more than 500 µM. Besides, the selectivity ratio in data set [2] was more than 165.

In the case of `O=C(O)C[C@@H]1[C@H]2CCCN3CCC[C@@H](CN1Cc1ccccc1)[C@@H]23`, the pEC50 with Hepatitis C virus is 3.94. The compound further gave a CC50 at 72 h in data set [1] of more than 500 µM. Also, the selectivity ratio in data set [2] was more than 4.39.

With `Cc1cccc(CN2C[C@@H]3CCCN4CCC[C@@H]([C@H]34)[C@H]2CC(=O)O)c1`, the pEC50 in the data set with Hepatitis C virus is 4.06. The CC50 at 72 h in data set [1] is more than 500 µM. Also, in data set [2], the selectivity ratio was more than 5.78.

For `O=C(O)C[C@@H]1[C@H]2CCCN3CCC[C@@H](CN1Cc1ccc(C(F)(F)F)cc1)[C@@H]23`, the negative logarithm of the EC50 (pEC50) in the data set with Hepatitis C virus is less than 3.78. In data set [1], this compound gave a CC50 at 72 h of 244 µM.

For the compound `OCC[C@@H]1[C@H]2CCCN3CCC[C@@H](CN1Cc1ccc(F)cc1F)[C@@H]23`, the pEC50 with Hepatitis C virus was 5.29. The CC50 at 72 h in data set [1] came out at 217 µM. In addition, the selectivity ratio in data set [2] was determined as 41.9.

For the compound `CCCN1C[C@@H]2CCCN3CCC[C@@H]([C@H]23)[C@H]1CCO`, the pEC50 in the data set with Hepatitis C virus was 5.31. Besides, the CC50 at 72 h in data set [1] is more than 500 µM. The selectivity ratio in [2] is more than 101.

On to `O=C(O)C[C@@H]1[C@H]2CCCN3CCC[C@@H](CN1Cc1ccc(Cl)c(Cl)c1)[C@@H]23`, for which the negative-log EC50 (pEC50) with Hepatitis C virus is 4.67. The compound also had a CC50 at 72 h in [1] of 141 µM. Besides, in data set [2], the selectivity ratio came to 6.65.

Turning to `COc1ccc(CN2C[C@@H]3CCCN4CCC[C@@H]([C@H]34)[C@H]2CCO)cc1`, the pEC50 in the data set with Hepatitis C virus is 5.49. For the same compound, the CC50 at 72 h in data set [1] was 309 µM. The selectivity ratio in data set [2] stood at 96.6. Further, in data set [3], the LD50 at 168 h is more than 250 mg/kg. For the same compound, the Tmax in [4] came to 0.33 h. In data set [5], this compound registered a Cmax of 310 nM. The AUC(0-t) in data set [6] is 0.5 µM·h. The AUC(0-inf) in data set [7] turned out to be 0.56 µM·h. In addition, the MRT in data set [8] is 1.6 h. For the same compound, the half-life in [9] is 2.08 h.

A word on the pEC50: it is the negative decadic logarithm of the EC50, by convention in mol/L. By CC50 is commonly meant the concentration giving 50% cytotoxicity. A word on the LD50: it is the dose expected to kill half of the subjects tested. The term Tmax denotes the time at which the peak concentration occurs. As usually defined, the Cmax is the highest concentration seen after dosing. As a reminder, the AUC(0-t) is exposure summed from dosing to a finite time, without extrapolation to infinity. A higher AUC(0-t) goes with more exposure. The term AUC(0-inf) denotes the area under the concentration-time curve extrapolated to infinity. Read a high AUC(0-inf) as high exposure. Broadly, the MRT is a mean duration of stay, worked out from the concentration-time curve. A word on the half-life: it is the time needed for the level to fall by half in the phase considered. The low end stands for rapid decline, the high end for slow decline.
